From patent publication US5843889A, “Glycopeptide antibiotic derivatives” (Eli Lilly and Company, priority 1997, dated 1998) come the findings set out here.

≈ marks a conversion by molar mass, not a printed value. Bounds are passed on as bounds.

Test in all cases: MIC, standard broth micro-dilution assay
Holding throughout (format): cell-based
(Dilution methods test growth across graded concentrations, often in twofold steps.)

The test system of assay [1] is Entercoccus faecalis 2041. The procedure: (§1) The formula I compounds have in vitro and in vivo activity against Gram-positive pathogenic bacteria. The MIC's were determined using a standard broth micro-dilution assay.
A further assay deals with Entercoccus faecalis 276. The procedure:
as §1

The test system of assay [2] is Entercoccus gallinarum 245. The procedure:
as §1

As a reminder, the MIC is the smallest concentration in the dilution series that meets the test's criterion for growth inhibition. The low end stands for inhibition by little substance, the high end for a need for much substance. As for `CNC(CC(C)C)C(=O)NC1C(=O)NC(CC(N)=O)C(=O)NC2C(=O)NC3C(=O)NC(C(=O)NC(C(=O)O)c4cc(O)cc(O)c4-c4cc3ccc4O)C(OC3CC(C)(N)C(O)C(C)O3)c3ccc(c(Cl)c3)Oc3cc2cc(c3OC2OC(CO)C(O)C(O)C2OC2CC(C)(NCc3ccc(-c4ccccn4)cc3)C(O)C(C)O2)Oc2ccc(cc2Cl)C1O` (stereo not drawn) [Compound 137, 4-[2-pyridyl]benzyl], the results for the MIC (in assay [1]; against Entercoccus faecalis 276; in assay [2]) were not above 0.06 µg/mL, not above 0.06 µg/mL and 8 µg/mL (≈ 4.55 µM), respectively.
For `CNC(CC(C)C)C(=O)NC1C(=O)NC(CC(N)=O)C(=O)NC2C(=O)NC3C(=O)NC(C(=O)NC(C(=O)O)c4cc(O)cc(O)c4-c4cc3ccc4O)C(OC3CC(C)(N)C(O)C(C)O3)c3ccc(c(Cl)c3)Oc3cc2cc(c3OC2OC(CO)C(O)C(O)C2OC2CC(C)(NCc3cccc(Sc4ccc(C(C)(C)C)cc4)c3)C(O)C(C)O2)Oc2ccc(cc2Cl)C1O` (stereo not drawn) [Compound 228, 3-[4-t-butyl-phenylthio]benzyl], the MIC in assay [1] turned out to be 0.25 µg/mL (≈ 0.135 µM); in the assay with Entercoccus faecalis 276 it was 1 µg/mL (≈ 0.541 µM); in assay [2] it was 4 µg/mL (≈ 2.17 µM).
As for `CNC(CC(C)C)C(=O)NC1C(=O)NC(CC(N)=O)C(=O)NC2C(=O)NC3C(=O)NC(C(=O)NC(C(=O)O)c4cc(O)cc(O)c4-c4cc3ccc4O)C(OC3CC(C)(N)C(O)C(C)O3)c3ccc(c(Cl)c3)Oc3cc2cc(c3OC2OC(CO)C(O)C(O)C2OC2CC(C)(NCc3ccc4ccc5cccc6ccc3c4c56)C(O)C(C)O2)Oc2ccc(cc2Cl)C1O` (stereo not drawn) [Compound 16, 1-pyrenylmethyl], the MIC in assay [1] was found to be 0.5 µg/mL (≈ 0.277 µM); against Entercoccus faecalis 276, 2 µg/mL (≈ 1.11 µM); in assay [2] it was 1 µg/mL (≈ 0.553 µM).
Consider `CNC(CC(C)C)C(=O)NC1C(=O)NC(CC(N)=O)C(=O)NC2C(=O)NC3C(=O)NC(C(=O)NC(C(=O)O)c4cc(O)cc(O)c4-c4cc3ccc4O)C(OC3CC(C)(N)C(O)C(C)O3)c3ccc(c(Cl)c3)Oc3cc2cc(c3OC2OC(CO)C(O)C(O)C2OC2CC(C)(NCc3ccc(N=Nc4ccccc4)cc3)C(O)C(C)O2)Oc2ccc(cc2Cl)C1O` (stereo not drawn) [Compound 210, 4-[phenylazo]benzyl], for which the MIC in assay [1] is not above 0.06 µg/mL; with Entercoccus faecalis 276, not above 0.06 µg/mL; in assay [2], 1 µg/mL (≈ 0.56 µM).
Turning to `CNC(CC(C)C)C(=O)NC1C(=O)NC(CC(N)=O)C(=O)NC2C(=O)NC3C(=O)NC(C(=O)NC(C(=O)O)c4cc(O)cc(O)c4-c4cc3ccc4O)C(OC3CC(C)(N)C(O)C(C)O3)c3ccc(c(Cl)c3)Oc3cc2cc(c3OC2OC(CO)C(O)C(O)C2OC2CC(C)(NCc3ccc(-c4ccccc4[N+](=O)[O-])cc3)C(O)C(C)O2)Oc2ccc(cc2Cl)C1O` (stereo not drawn) [Compound 102, 4-[2-nitrophenyl]benzyl], the MIC was not above 0.06 µg/mL in assay [1], 0.25 µg/mL (≈ 0.139 µM) in the assay on Entercoccus faecalis 276 and 4 µg/mL (≈ 2.22 µM) in assay [2].
Regarding `CNC(CC(C)C)C(=O)NC1C(=O)NC(CC(N)=O)C(=O)NC2C(=O)NC3C(=O)NC(C(=O)NC(C(=O)O)c4cc(O)cc(O)c4-c4cc3ccc4O)C(OC3CC(C)(N)C(O)C(C)O3)c3ccc(c(Cl)c3)Oc3cc2cc(c3OC2OC(CO)C(O)C(O)C2OC2CC(C)(NCCCCC3CCCCC3)C(O)C(C)O2)Oc2ccc(cc2Cl)C1O` (stereo not drawn) [Compound 205, 4-cyclohexylbutyl], the MIC in assay [1] turned out to be 0.25 µg/mL (≈ 0.144 µM); in the assay with Entercoccus faecalis 276, 0.5 µg/mL (≈ 0.289 µM); in assay [2], 1 µg/mL (≈ 0.578 µM).
As to `CNC(CC(C)C)C(=O)NC1C(=O)NC(CC(N)=O)C(=O)NC2C(=O)NC3C(=O)NC(C(=O)NC(C(=O)O)c4cc(O)cc(O)c4-c4cc3ccc4O)C(OC3CC(C)(N)C(O)C(C)O3)c3ccc(c(Cl)c3)Oc3cc2cc(c3OC2OC(CO)C(O)C(O)C2OC2CC(C)(NCc3ccc(S(=O)(=O)c4ccc(Cl)cc4)cc3)C(O)C(C)O2)Oc2ccc(cc2Cl)C1O` (stereo not drawn) [Compound 148, 4-[4-chlorophenylsulfonyl]benzyl], the values for the minimum inhibitory concentration (MIC) (in assay [1]; in the assay with Entercoccus faecalis 276; in assay [2]) were not above 0.06 µg/mL, not above 0.06 µg/mL and 2 µg/mL (≈ 1.08 µM), respectively.
